Experimental data taken from patent EP1380291A1, “PDE IV inhibitors for treating multiple sclerosis” (Schering Aktiengesellschaft, priority 1994, dated 1995).
pEC50: −log10 of the molar value.

Legend:
[1] = system: encephalitogenic CD4+ MBP-specific rat TCL (L1402); assay: TNF/LT production by an encephalitogenic MBP-specific rat T-cell line, cytotoxicity bioassay; format: cell-based
Source text: To assess the ability of rolipram alone or in various combinations as described to modify autoimmune processes, we investigated its influence on TNF production in vitro by MBP-specific T-cell lines from MS patients and Lewis rats. MBP is a major candidate antigen in MS, and T-cell-mediated immunity is of crucial importance in its pathogenesis. Similar to EAE, MBP-specific T-cells in humans are often cytotoxic, of Th1 type secreting interferon (IFN)-gamma and TNF/LT, and recognize epitopes that are also encephalitogenic in EAE.
Similar results were found using an encephalitogenic CD4+ MBP-specific rat TCL (L1402). […] Previous investigations had shown that inhibition of cAMP PDE by rolipram is stereospecific.
TNF and LT may both be produced by autoactive T-cells. CD4+ cells have been reported to be the major source of TFN in autoimmune insulitis of NOD mice. The cytokine bioassay for TNF/LT detection employed here is sensitive to TNF and LT, but is 200 times more sensitive to the former.

[2] = system: mouse and rat forebrain tissue; details: in vitro and in vivo binding with 3H-rolipram; previous investigations; cited from earlier work
[3] = system: EAE after active immunization (aEAE); assay: EAE after active immunization (aEAE) in Lewis rats; format: in vivo; details: drug given from the day of active immunization until day 11
Description: (§1) The results of our in vivo findings prompted us to perform treatment experiments in EAE after active immunization (aEAE) and adoptive cell transfer (tEAE) in Lewis rats. […] In clinically manifest EAE, treatment was started within 6 hours of the onset of symptoms. […] In tEAE similar effects were observed. […] Treatment after onset of symptoms also lead to a marked reduction in maximum severity (treated group: MMS 0.7 ± 0.10, n = 5; vehicle treated matched controls 2.45 ± 0.56, n = 5, p 0.01).
In order to distinguish further between a long-term prophylactic or a temporary suppressive effect, animals received the drug from the day of active immunization until day 11.
Histological analysis was performed on selected animals with aEAE. […] In a study on EAE, induced by myelin oligodendrocyte glycoprotein (MOG)-specific T-cells, the lack of neurological signs was ascribed to a decrease of macrophages and parenchymal inflammation, whereas perivascular inflammation and the synthesis of TNF, IFN-gamma, and interleukin-6 was clearly present. In our system, however, the timely onset of paralysis and the morphologically similar appearance of infiltrates in some of the treated animals argues against such a phenomenon. […]

[4] = system: Experimental Allergic Encephalomyelitis (EAE); assay: Treatment of active (chronic) EAE with Rolipram in a marmoset; format: in vivo, Callithrix jacchus (common marmoset); details: escalating doses of Rolipram in DMSO
[5] = system: EAE after adoptive cell transfer (tEAE); assay: EAE after adoptive cell transfer (tEAE) in Lewis rats; format: in vivo; details: n = 5
Description: as §1

[6] = system: Experimental Allergic Encephalomyelitis (EAE); assay: Prevention of EAE by Rolipram treatment in marmosets immunized with human brain white matter homogenate; format: in vivo, Callithrix jacchus (common marmoset); details: treatment removed on day 60 following immunization; two marmosets

SMILES: COc1ccc(C2CNC(=O)C2)cc1OC1CCCC1 (single isomer, unassigned; (+)) [(+)-rolipram]
- pEC50 ([1]; inhibition of TNF/LT production, given alone): 6.55

SMILES: COc1ccc(C2CNC(=O)C2)cc1OC1CCCC1 (single isomer, unassigned; (-)) [(-)-rolipram]
- times higher affinity than the (+)-enantiomers [2]: 15-30 times
- times more effective than the (+)-enantiomer (inhibition of TNF/LT production) [1]: 55 times

SMILES: COc1ccc(C2CNC(=O)C2)cc1OC1CCCC1 (stereo not drawn) [Rolipram, 4-[(3-cyclopentyloxy)-4-methoxyphenyl]-2-pyrrolidinone]
- delay of aEAE [3]: 3.5 days
- day of MRI improvement following initiating Rolipram treatment [4]: 14 days
- day of marked improvement after initiating treatment [4]: 10 days
- mean maximum score (MMN) ([5]; prophylactic treatment, p < 0.01 versus controls): 0.3 ± 0.11
- MMS (maximum severity) ([5]; treatment after onset of symptoms): 0.7 ± 0.10
- day on which clinical signs of EAE began following withdrawal of Rolipram [6]: 17 days
